# Legend:
# HOXA1-PBX1/DNA = target: T1, HOXA1-PBX1/DNA (Mus musculus, UniProt P41778); assay: EMSA, formation of HOXA1-PBX1/DNA ternary complex; type: binding; conditions: for Selectivity for HOXA1-PBX1/DNA ternary complex relative to the other complexes tested: versus PBX1/DNA, BRN1/DNA, BRN2/DNA
# T1 construct: the mouse/human 233-319 PBX1 protein
# T1 sequence (P41778 233-319): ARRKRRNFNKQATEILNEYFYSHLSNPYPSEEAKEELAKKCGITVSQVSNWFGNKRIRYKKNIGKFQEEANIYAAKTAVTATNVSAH
# BRN1/DNA = target: T2, BRN1/DNA (Mus musculus, UniProt P31361); assay: EMSA, BRN1/DNA complex (nuclear extracts from RA treated P19 cells); type: binding; conditions: EMSA with BRN1 recognition element probe
# T2 construct: using nuclear extracts from RA treated P19 cells; endogenous in cells; host or cells: RA-treated P19 cells, nuclear extract
# T2 sequence (P31361 1-497): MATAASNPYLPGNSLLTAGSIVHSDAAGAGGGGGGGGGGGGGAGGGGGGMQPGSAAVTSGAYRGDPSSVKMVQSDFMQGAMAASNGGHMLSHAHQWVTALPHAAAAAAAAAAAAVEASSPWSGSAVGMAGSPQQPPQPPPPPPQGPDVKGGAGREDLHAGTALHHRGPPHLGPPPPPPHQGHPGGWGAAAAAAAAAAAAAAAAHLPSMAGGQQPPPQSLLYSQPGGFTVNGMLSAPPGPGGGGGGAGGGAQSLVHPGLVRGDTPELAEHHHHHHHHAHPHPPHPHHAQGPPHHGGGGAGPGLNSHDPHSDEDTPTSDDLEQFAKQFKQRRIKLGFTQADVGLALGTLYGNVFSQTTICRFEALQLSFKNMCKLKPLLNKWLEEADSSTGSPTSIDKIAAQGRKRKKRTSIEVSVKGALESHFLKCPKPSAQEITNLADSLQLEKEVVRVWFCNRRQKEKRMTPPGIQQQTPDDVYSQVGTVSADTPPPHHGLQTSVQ
# Method: (§1) The selectivity of individual members of the library for the HOXA1-PBX1/DNA target, as well as the ability of some analogs to cross over to other transcription factor targets was evaluated by testing them in parallel against the BRN1 & BRN2 transcription factors. BRN1 and BRN2 are members of mammalian class III POU transcription factor family and are expressed in the developing embryonic brain (McEvilly et al., Science 295:1528 (2002), which is hereby incorporated by reference in its entirety). POU domain class transciption factors contain, in addition to the POU domain, a homeodomain helix-turn-helix class DNA binding motif similar to that found in the HOX and PBX class transcription factors (Josephson et al., Development 125:3087 (1998); Hara et al., PNAS 89(8):3280 (1992), which are hereby incorporated by reference in their entirety). EMSAs were performed with BRN1 & BRN2 exactly as was done with HOXA1-PBX1 except that a sequence recognition element known to bind BRN1/BRN2 was used as the probe (Pruitt et al., Gene Expression Patterns 4(6):671 (2004), which is hereby incorporated by reference in its entirety).
# BRN2/DNA = target: T3, BRN2/DNA (Mus musculus, UniProt P31360); assay: EMSA, BRN2/DNA complex (nuclear extracts from RA treated P19 cells); type: binding; conditions: EMSA with BRN2 recognition element probe
# T3 construct: using nuclear extracts from RA treated P19 cells; endogenous in cells; host or cells: RA-treated P19 cells, nuclear extract
# T3 sequence (P31360 whole entry): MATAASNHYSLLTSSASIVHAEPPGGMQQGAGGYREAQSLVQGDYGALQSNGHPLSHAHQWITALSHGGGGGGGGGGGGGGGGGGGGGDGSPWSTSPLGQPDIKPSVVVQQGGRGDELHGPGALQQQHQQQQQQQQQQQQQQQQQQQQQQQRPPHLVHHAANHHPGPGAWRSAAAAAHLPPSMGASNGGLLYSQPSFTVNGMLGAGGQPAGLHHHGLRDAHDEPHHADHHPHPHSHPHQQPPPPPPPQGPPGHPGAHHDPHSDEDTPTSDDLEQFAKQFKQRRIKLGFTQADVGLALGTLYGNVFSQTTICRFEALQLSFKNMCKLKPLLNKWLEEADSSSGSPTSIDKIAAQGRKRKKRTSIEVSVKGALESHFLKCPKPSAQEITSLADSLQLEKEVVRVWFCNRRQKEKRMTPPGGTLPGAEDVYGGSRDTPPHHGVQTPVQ
# Method: as §1
# PBX1/DNA = target: T4, PBX1/DNA (Mus musculus, UniProt P41778); assay: EMSA, formation of PBX1/DNA binary complex (FIG. 1); type: binding; conditions: for Inhibition of formation of the PBX1/DNA binary complex: FIG. 1
# T4 construct: the mouse/human 233-319 PBX1 protein
# T4 sequence (P41778 233-319): T1 sequence (P41778 233-319)
# Excerpt: Antagonist 31 differs from compound 15 by replacing the small cyclopropyl R1 with the larger 4-hydroxyphenyl group. […] On the other hand, both antagonists can bind in the hydrophobic pocket thereby preventing HOXA1 from binding to the binary complex. Upon closer evaluation of the compound 31 dose-response of the binary PBX/DNA band intensity relative to the ternary HOXA1-PBX/DNA band intensity, it was noted that the binary PBX/DNA band initially “increased” in intensity at low compound 31 concentrations. […] As the concentration of compound 31 is further increased, the binary PBX/DNA complex formation is inhibited enough to overcome the release of this binary complex from the ternary complex and, therefore, the binary band intensity begins to decrease.
# [1] = target: T5, HOX-PBX1 cooperative DNA binding (Homo sapiens, UniProt P40424); conditions: literature value (Knoepfler et al. 1995); read-out: IC50 for blocking cooperative HOX-PBX DNA binding; cited from earlier work
# T5 sequence (P40424 1-430): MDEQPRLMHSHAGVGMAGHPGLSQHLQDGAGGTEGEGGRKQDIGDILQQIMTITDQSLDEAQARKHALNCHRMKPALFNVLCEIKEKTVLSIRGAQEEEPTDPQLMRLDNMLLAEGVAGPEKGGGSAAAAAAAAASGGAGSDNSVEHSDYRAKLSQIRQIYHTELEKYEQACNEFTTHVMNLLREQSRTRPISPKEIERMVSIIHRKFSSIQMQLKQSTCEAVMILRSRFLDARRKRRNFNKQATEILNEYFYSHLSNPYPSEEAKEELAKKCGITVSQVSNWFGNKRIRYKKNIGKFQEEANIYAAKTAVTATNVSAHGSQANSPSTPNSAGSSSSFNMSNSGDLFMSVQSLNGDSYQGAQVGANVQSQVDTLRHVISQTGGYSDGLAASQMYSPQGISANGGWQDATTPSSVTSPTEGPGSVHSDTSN
# [2] = Table 1, EMSA, averaged densitometric analysis of multiple gels
# [3] = Table 2, 5,6,7,8-tetrahydro-naphthalenes
# [4] = Table 3, tricyclo[6.2.2.0^2,7]dodeca-2(7),3,5-trienes
compound,measurement,setting,value
NC(=O)COc1ccc(C(=O)Nc2cccc(F)c2)c2ccccc12 [Compound 7],IC50,HOXA1-PBX1/DNA; [2],272 µM
CCCNC(=O)COc1ccc(C(=O)Nc2cccc(F)c2)c2ccccc12 [Compound 11],IC50,HOXA1-PBX1/DNA; [2],278 µM
CC(C)NC(=O)COc1ccc(C(=O)Nc2cccc(F)c2)c2ccccc12 [Compound 12],IC50,HOXA1-PBX1/DNA; [2],272 µM
CC(C)CNC(=O)COc1ccc(C(=O)Nc2cccc(F)c2)c2ccccc12 [Compound 13],IC50,HOXA1-PBX1/DNA; [2],298 µM
O=C(COc1ccc(C(=O)Nc2cccc(F)c2)c2ccccc12)NC1CC1 [Compound 15],IC50,HOXA1-PBX1/DNA; [2],173 µM
same,Selectivity for HOXA1-PBX1/DNA ternary complex relative to the other complexes tested,HOXA1-PBX1/DNA,selective
same,IC50,BRN1/DNA,810 µM
same,IC50,BRN2/DNA,> 10000 µM
same,Inhibition of formation of the PBX1/DNA binary complex,PBX1/DNA,ternary complex only
C#CCNC(=O)COc1ccc(C(=O)Nc2cccc(F)c2)c2ccccc12 [Compound 16],IC50,HOXA1-PBX1/DNA; [2],331 µM
O=C(COc1ccc(C(=O)Nc2cccc(F)c2)c2ccccc12)NCC(F)(F)F [Compound 17],IC50,HOXA1-PBX1/DNA; [2],111 µM
same,IC50,BRN1/DNA,162 µM
same,IC50,BRN2/DNA,204 µM
O=C(COc1ccc(C(=O)Nc2cccc(F)c2)c2ccccc12)Nc1ccccc1 [Compound 23],IC50,HOXA1-PBX1/DNA; [2],254 µM
O=C(COc1ccc(C(=O)Nc2cccc(F)c2)c2ccccc12)Nc1ccc(F)cc1 [Compound 26],IC50,HOXA1-PBX1/DNA; [2],293 µM
COc1ccccc1NC(=O)COc1ccc(C(=O)Nc2cccc(F)c2)c2ccccc12 [Compound 27],IC50,HOXA1-PBX1/DNA; [2],718 µM
COc1cccc(NC(=O)COc2ccc(C(=O)Nc3cccc(F)c3)c3ccccc23)c1 [Compound 28],IC50,HOXA1-PBX1/DNA; [2],580 µM
COc1ccc(NC(=O)COc2ccc(C(=O)Nc3cccc(F)c3)c3ccccc23)cc1 [Compound 29],IC50,HOXA1-PBX1/DNA; [2],161 µM
O=C(COc1ccc(C(=O)Nc2cccc(F)c2)c2ccccc12)Nc1cccc(O)c1 [Compound 30],IC50,HOXA1-PBX1/DNA; [2],86 µM
same,IC50,BRN1/DNA,142 µM
same,IC50,BRN2/DNA,148 µM
O=C(COc1ccc(C(=O)Nc2cccc(F)c2)c2ccccc12)Nc1ccc(O)cc1 [Compound 31],IC50,HOXA1-PBX1/DNA; [2],65 µM
same,Selectivity for HOXA1-PBX1/DNA ternary complex relative to the other complexes tested,HOXA1-PBX1/DNA,some selectivity
same,IC50,BRN1/DNA,124 µM
same,IC50,BRN2/DNA,138 µM
same,Inhibition of formation of the PBX1/DNA binary complex,PBX1/DNA,inhibited
same,Binary PBX/DNA band intensity at low compound concentrations,"PBX1/DNA; dose-response, low concentrations",increased
COc1ccc(NC(=O)COc2ccc(C(=O)Nc3cccc(F)c3)c3ccccc23)cc1OC [Compound 34],IC50,HOXA1-PBX1/DNA; [2],464 µM
O=C(COc1ccc(C(=O)Nc2cccc(F)c2)c2c1CCCC2)NC1CC1 [Compound 48],IC50,HOXA1-PBX1/DNA; [3],66 µM
O=C(COc1ccc(C(=O)Nc2cccc(F)c2)c2c1CCCC2)NCC(F)(F)F [Compound 49],IC50,HOXA1-PBX1/DNA; [3],84 µM
O=C(COc1ccc(C(=O)Nc2cccc(F)c2)c2c1CCCC2)Nc1ccc(O)cc1 [Compound 50],IC50,HOXA1-PBX1/DNA; [3],96 µM
O=C(COc1ccc(C(=O)Nc2cccc(F)c2)c2c1C1CCC2CC1)NC1CC1 [Compound 61],IC50,HOXA1-PBX1/DNA; [4],562 µM
O=C(COc1ccc(C(=O)Nc2cccc(F)c2)c2c1C1CCC2CC1)Nc1ccc(O)cc1 [Compound 62],IC50,HOXA1-PBX1/DNA; [4],196 µM
"O=C(COc1ccc(C(=O)Nc2cccc(F)c2)c2c1C1CCC2CC1)NCC(F)(F)F [Compound 63, 6-[(2,2,2-Trifluoro-ethylcarbamoyl)-methoxy]-tricyclo[6.2.2.0^2,7]dodeca-2,4,6-triene-3-carboxylic Acid (3-fluoro-phenyl)-amide]",IC50,HOXA1-PBX1/DNA; [4],258 µM
QPQIYPWMRKLH,IC50,[1],100 µM

# From patent US7662750B2, “Protein-protein interaction antagonist screening libraries based upon 1,4-disubstituted naphthalenes and related scaffolds” (The Research Foundation of State University of New York, priority 2003, dated 2010)
